Data set [1] has as its system MLN4924 resistant HCT-116 cell clones. The experiment in a line: Cell viability assay, 96 hours ATPlite, resistant clones. It is filed as cell-based. The following applies: Homo sapiens; four HCT-116 resistant clones. As to the method:
HCT-116 cells and resistant clones were treated with DMSO or various concentrations of FIG. 7A. bortezomib, FIG. 7B. doxorubicin or FIG. 7C. SN-38 for 96 hours and cell viability was assessed with ATPlite assay.
(§1) Cell line cultures were maintained using appropriate cell culture media as recommended by ATCC and as previously reported (Soucy et al., 2009, Milhollen et al., 2010). […] Cell viability assays completed using 96 hours ATPlite assay (PerkinElmer) as previously reported (Soucy et al., 2009).

In data set [2] the target is T1, wild-type UBA6 (Homo sapiens, UniProt A0AVT1).
T1 construct: His6 (N); made in house; host or cells: Sf9 insect cells (baculovirus, single infection)
Kind of data set: UBA6 pyrophosphate exchange assay. It is filed as biochemical. Particulars: wt UBA6 5 nM, 1 mM ATP, 4 μM ubiquitin, 60 minutes at 30° C. As to the method:
(§2) ATP and PPi titrations were run under similar condition, except ubiquitin was fixed at 4 μM. […] ATP standard curve.
(§3) Reactions were initiated with addition of 4 μM ubiquitin.

Data set [3] deals with T2, A573T UBA6 (Homo sapiens, UniProt A0AVT1, A573T).
T2 construct: His6 (N); made in house; host or cells: Sf9 insect cells (baculovirus, single infection)
Kind of data set: UBA6 pyrophosphate exchange assay. The following applies: A573T UBA6 5 nM, 1 mM ATP, 4 μM ubiquitin. It is filed as biochemical. As to the method:
as §2, §3

For data set [4], the target named is T3, A573D UBA6 (Homo sapiens, UniProt A0AVT1, A573D).
T3 construct: His6 (N); made in house; host or cells: Sf9 insect cells (baculovirus, single infection)
Kind of data set: UBA6 pyrophosphate exchange assay. The following applies: A573D UBA6 5 nM, 1 mM ATP, 4 μM ubiquitin. It is filed as biochemical. As to the method:
as §2, §3

For data set [5], the system named is MLN4924 resistant NCI-H460 clones. Kind of data set: Cell viability assay, 96 hours ATPlite, resistant clones. In kind it is cell-based. Particulars: Homo sapiens; two NCI-H460 resistant clones. The method, then: (§4) FIG. 6A. Calu-6 and FIG. 6B.
as §1
(In general: In ATP-based viability assays light output follows the ATP content of the culture.)

Data set [6] concerns HCT-116 WT, A171T and G201V cells. Kind of data set: Cell cycle analysis (propidium iodide, flow cytometry). It is filed as cell-based. Particulars: HCT-116 resistant A171T and G201V clones, 1 μM, 24 hours. As to the method: Cell cycle analysis. FIG. 11A. HCT-116 WT, FIG. 11B. HCT-116.1 A171T and FIG. 11C.
Logarithmically growing cells were incubated with either MLN4924 or DMSO for the times indicated. Collected cells were fixed in 70% ethanol and stored overnight at 4° C. Fixed cells were centrifuged to remove ethanol, and the pellets were resuspended in propidium iodide and RNaseA in PBS for 1 h on ice protected from light. Cell-cycle distributions were determined using flow cytometry (FACS Calibur, Becton Dickinson) and analysed using Winlist software (Verity).
A general note: In flow cytometry, cells or beads pass a laser one at a time.

Data set [7] deals with Calu-6 cells. The experiment in a line: Cell viability assay, 96 hours ATPlite. In kind it is cell-based. The following applies: Homo sapiens, Calu-6 parental cells. The method, then:
as §1

The subject of data set [8] is HCT-116 cells. Kind of data set: Cell viability assay, 96 hours ATPlite. In kind it is cell-based. Particulars: Homo sapiens, HCT-116 parental cells. The method, then:
as §1

Data set [9] concerns A171T HCT-116 xenografts. Kind of data set: Antitumor study, re-transplanted resistant xenograft in nude rats. Particulars: A171T HCT-116 xenograft, one cycle of 150 mg/kg (days 1, 4, 8, 11). It is filed as in vivo, rat. The method, then: (§5) Female NCr Nude rats (Taconic Farms) aged 6-8 weeks were inoculated with 10×10^6 HCT-116 cells subcutaneously in the right flank. Tumor growth was measured using digital vernier calipers. […] Rats received one dose per day biweekly for 2 weeks (days 1, 4, 8, and 11) of a 21-day therapy cycle. After three cycles of treatment refractory tumors were collected. Female CB-17 SCID mice (Charles River Laboratories) aged 6-8 weeks were inoculated with 2×10^6 THP-1 or OCI-Ly10 cells with Matrigel™ support (1:1, v/v). […] Mice received two doses per day bi-weekly (days 1, 4, 8, 11, 15, 18, 22 . . . ) until tumors reached approximately 500-800 mm^3. Tumors were then collected and one 40-50 mg piece of tumor was subcutaneously implanted using a 13 gauge trocar needle into 6 to 8 naïve animals for further study. In addition tumor DNA was extracted for mutational analysis as described in supplementary information.
The A171T NAEβ mutation was still present in this resistant xenograft model as confirmed by both Sanger and Sequenom methodologies.

Data set [10] relates to OCI-Ly10 DLBCL xenografts. The experiment in a line: Antitumor study, subcutaneous xenografts in CB-17 SCID mice. Particulars: 90 mg/kg BID bi-weekly. In kind it is in vivo, mouse. As to the method: as §5
Data set [11] relates to THP-1 AML xenografts. Described as above. The following applies: THP-1 xenografts, 90 mg/kg BID, biweekly. In kind it is in vivo, mouse. As to the method: as §5
Data set [12] relates to NEDD8 pathway (NEDD8-cullin, NEDD8-NAEβ, NEDD8-Ubc12, CDT1, NRF2). Kind of data set: Western blot pathway analysis of treated cells. It is filed as cell-based. The method, then:
Whole cell extracts were prepared and immunoblotting assays performed as previously described (Soucy, 2009) with primary antibodies as follows: CDT1, NRF2, NEDD8, NAEβ, UBC12 and 4924-NEDD8-ADS (MIL22) (Millennium); UBC10 (Boston Biochem); K48 (Millipore); NAE1 (sigma) and tubulin (Santa Cruz). Secondary Alexa-680-labelled antibodies to rabbit/mouse IgG (Molecular Probes) were used as appropriate and blots were imaged using the Li-Cor Odyssey Infared Imaging system.
The reduced effect on NAE inhibition was confirmed by a reduced accumulation of two CRL substrates, Nrf2 and Cdt1.

Data set [13] has as its system A171T THP-1 xenografts. Kind of data set: Antitumor study, re-established resistant xenograft in SCID mice. It is filed as in vivo, mouse. Particulars: A171T THP-1 xenograft, 90 mg/kg BID bi-weekly. As to the method: as §5
The subcutaneous model was utilized to facilitate harvesting tumors for subsequent analysis. […] Three THP-1 xenografts contained a heterozygous mutation in NAEB at A171T, one contained a heterozygous mutation in at N209D and the remaining two were wild type for NAEB and so may be refractory through an alternate mechanism (FIG. 14A and Table 6).

Data set [14] has as its system HCT-116 xenografts (WT). The experiment in a line: Antitumor study, subcutaneous xenografts in nude rats. It is filed as in vivo. As to the method:
as §5

Experiment in data set [15]: as above
It is filed as in vivo. The following applies: female, NCr Nude, rat, in vivo, sc; immunocompromised rats, subcutaneously, days 1, 4, 8 and 11 of a 21 day cycle; read-out: maximum tolerated dose. As to the method:
as §5

For data set [16], the system named is MLN4924 resistant Calu-6 clone. The experiment in a line: Cell viability assay, 96 hours ATPlite, resistant clone. In kind it is cell-based. Particulars: Homo sapiens; one Calu-6 resistant clone. As to the method: as §4, §1
Data set [17] has as its system E204G OCI-Ly10 xenografts. Kind of data set: Antitumor study, re-implanted resistant xenograft in SCID mice. Particulars: re-implanted E204G OCI-Ly10 tumor, 90 mg/kg BID. In kind it is in vivo, mouse. As to the method: as §5

Experimental findings from patent publication US20170107579A1, “E1 ENZYME MUTANTS AND USES THEREOF” (Millennium Pharmaceuticals, Inc., priority 2011, published 2017) are described below.

T1 sequence (A0AVT1 whole entry): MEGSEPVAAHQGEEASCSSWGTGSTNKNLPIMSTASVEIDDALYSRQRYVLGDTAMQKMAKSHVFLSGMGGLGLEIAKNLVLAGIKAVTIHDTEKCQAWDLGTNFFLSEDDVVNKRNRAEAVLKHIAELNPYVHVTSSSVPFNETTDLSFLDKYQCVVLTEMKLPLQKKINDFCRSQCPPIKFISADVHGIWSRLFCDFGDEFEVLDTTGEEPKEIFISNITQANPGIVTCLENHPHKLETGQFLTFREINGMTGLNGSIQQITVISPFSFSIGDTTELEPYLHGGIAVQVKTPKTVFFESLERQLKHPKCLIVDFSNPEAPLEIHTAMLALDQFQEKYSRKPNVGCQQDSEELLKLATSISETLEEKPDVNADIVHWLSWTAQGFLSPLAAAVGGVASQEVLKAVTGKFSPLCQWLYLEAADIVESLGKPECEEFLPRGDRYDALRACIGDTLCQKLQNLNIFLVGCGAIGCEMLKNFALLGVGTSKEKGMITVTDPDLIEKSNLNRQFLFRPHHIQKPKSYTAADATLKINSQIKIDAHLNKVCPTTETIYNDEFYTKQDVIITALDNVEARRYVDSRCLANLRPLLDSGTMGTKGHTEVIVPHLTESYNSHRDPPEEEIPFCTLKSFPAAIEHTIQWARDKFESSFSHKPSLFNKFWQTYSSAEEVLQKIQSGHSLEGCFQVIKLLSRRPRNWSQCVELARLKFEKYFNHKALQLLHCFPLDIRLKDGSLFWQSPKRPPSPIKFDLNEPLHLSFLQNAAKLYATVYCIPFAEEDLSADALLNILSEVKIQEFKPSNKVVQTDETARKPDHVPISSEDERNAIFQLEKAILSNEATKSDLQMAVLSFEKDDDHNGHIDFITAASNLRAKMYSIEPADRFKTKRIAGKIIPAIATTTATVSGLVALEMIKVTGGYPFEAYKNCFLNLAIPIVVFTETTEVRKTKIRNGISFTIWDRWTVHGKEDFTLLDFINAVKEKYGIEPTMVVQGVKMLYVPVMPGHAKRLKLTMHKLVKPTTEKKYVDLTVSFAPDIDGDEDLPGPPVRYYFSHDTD
T2 sequence (A0AVT1 whole entry A573T): as the sequence (A0AVT1 whole entry) above, with A573T counted along it
T3 sequence (A0AVT1 whole entry A573D): as the sequence (A0AVT1 whole entry) above, with A573D counted along it

For orientation: EC50 means the concentration needed to bring the measured effect to its halfway point. The IC50 is the concentration needed to halve the response being measured. Low readings indicate higher potency, high ones lower potency. Regarding `NS(=O)(=O)OC[C@@H]1C[C@@H](n2ccc3c(N[C@H]4CCc5ccccc54)ncnc32)C[C@@H]1O` [MLN4924, ((1S,2S,4R)-4-{4-[(1S)-2,3-dihydro-1H-inden-1-ylamino]-7H-pyrrolo[2,3-d]pyrimidin-7-yl}-2-hydroxycyclopentyl)methyl sulphamate], the EC50 is more than 10 µM in [1]; more than 10 µM in data set [5]; 0.08 µM in data set [7]; 0.046 µM in data set [8]; more than 10 µM in [16]. Moreover, the IC50 was 6.2 ± 0.8 µM in [2], more than 100 µM in data set [3] and more than 100 µM in data set [4]. The cell cycle distribution result in data set [6] is on record as “not significantly altered”. Besides, the tumor growth inhibition was found to be 38% in data set [9] and 94% in [14] (wild type HCT-116 xenografts, one cycle of 150 mg/kg (days 1, 4, 8, 11)). For the same compound, the antitumor effect result is “tumor regressions” in [10]; “uniform tumor regressions” in [11]; “resistant” in data set [13]; “tumor regressions” in data set [14] (WT HCT-116 xenografts, after first cycle, 150 mg/kg s.c.); “resistant” in [17]. Also, the “inhibition of NEDD8 conjugation to NAEB, UBC12 and the cullin proteins” value in data set [12] (HCT-116 A171T and G201V clones compared to WT cells) is reported as “reduced effect of inhibition”. The “effect on the neddylation pathway and CRL substrate accumulation” value in [12] (NCI-H460 A171D and Calu-6 N209K clones) is on record as “reduced potency”. Also, the MTD in data set [15] turned out to be 150 mg/kg.
